{
  "source": "patent US20100204141A1",
  "about": "“USE OF BPP-B AS A THERAPEUTIC AGENT” (priority 2007, published 2010)",
  "key": {"[1]": {"assay": "Cytotoxicity (dye uptake cell viability) in the HBV assay", "format": "cell-based", "conditions": "human, HepG2-2.2.15 cells (stable line containing HBV ayw genome), test peptide 10 micrograms per ml"}, "[2]": {"assay": "Cytotoxicity testing in MRC-5 cells (CellTiter 96)", "format": "cell-based, human", "conditions": "human, MRC-5 cells (embryonal lung fibroblasts), 6 days incubation, read-out: % Cell viability", "method": "(§1) For cytotoxicity testing, MRC-5 cells were seeded at 2,500 cells/well in 96 well plates using growth medium. […] The following day, peptide was added and tested in duplicates. After a 6 days incubation period, cell viability was measured using CellTiter 96 Solution (Promega). Plates were incubated for additional 4 hours at 37° C."}, "MRSA": {"system": "MRSA", "assay": "Methicillin Resistant Staphylococcus Aureus (MRSA) assay", "format": "cell-based", "conditions": "MRSA growth; peptide 10 micrograms per ml", "method": "(§2) The antibacterial assay was conducted using clear, U-bottom 96-well microtiter plates. Cation-adjusted Mueller-Hinton Broth (MHB) was used for testing MRSA. The peptide of the invention (0.1 ml of each—10 micrograms per ml—) was dispensed into wells in duplicate. Then the wells were inoculated with 5×10^5 CFU/mL MRSA in 0.1 ml volume. For control purposes, each plate included 4 wells containing media without bacterial inoculum and 4 wells containing medium with inoculum but without peptide. The plates were incubated for 12 h at 37° C., and read visually 18-24 hours post-incubation. Growth control of MRSA was examined first to determine adequacy of media preparations and growth conditions. Acceptable growth is defined as ≧2 mm wide button of cells at the bottom of each sample well, or obvious turbidity in the culture supernatant. Test wells were examined and scored as positive/negative for activity. A positive score for activity is based on complete inhibition of macroscopic growth of the test MRSA."}, "Pseudomonas aeruginosa": {"system": "Pseudomonas aeruginosa", "assay": "Pseudomonas aeruginosa assay", "format": "cell-based", "conditions": "Pseudomonas aeruginosa growth; peptide 10 micrograms per ml", "method": "as §2, with “Pseudomonas aeruginosa.” for “MRSA.”, “Pseudomonas aeruginosa” for “MRSA”"}, "Streptococcus pneumoniae": {"system": "Streptococcus pneumoniae", "assay": "Streptococcus pneumoniae assay", "format": "cell-based", "conditions": "Streptococcus pneumoniae growth; peptide 10 micrograms per ml", "method": "as §2, with “Streptococcus pneumoniae.” for “MRSA.”, “Streptococcus pneumoniae” for “MRSA”"}, "[3]": {"assay": "Cytotoxicity (MTS cell viability) in the HIV-1 assay", "conditions": "human, CEM-SS cells (uninfected drug cytotoxicity wells)"}, "CEM-SS cells": {"system": "CEM-SS cells", "assay": "Cytotoxicity (MTS cell viability) in the HIV-1 assay", "conditions": "CEM-SS cells; test peptide 10 micrograms per ml; MTS"}, "HIV-1IIIB": {"system": "HIV-1IIIB", "assay": "HIV-1 antiviral assay (CPE reduction, MTS) in CEM-SS cells", "conditions": "test peptide 10 micrograms per ml, 6 days post-infection"}, "MRC-5 cells": {"system": "MRC-5 cells", "assay": "Cytotoxicity testing in MRC-5 cells (CellTiter 96)", "format": "cell-based, human", "conditions": "6 days incubation", "method": "as §1"}, "HCMV strain AD169": {"system": "HCMV strain AD169", "assay": "HCMV plaque reduction assay in MRC-5 cells", "conditions": "HCMV in MRC-5 cells; peptide 10 micrograms per ml; 7-10 days"}, "HepG2-2.2.15 cells": {"system": "HepG2-2.2.15 cells", "assay": "Cytotoxicity (dye uptake cell viability) in the HBV assay", "format": "cell-based", "conditions": "test peptide 10 micrograms per ml"}},
  "note": "Square brackets hold non-standard residues; d marks the D form. Peptide text beside a SMILES is read from it. pGlu = O=C1CC[C@@H](C(=O)O)N1",
  "data": [
    {"molecule": "CC[C@H](C)[C@H](NC(=O)[C@H](CCCCN)NC(=O)[C@@H]1CCCN1C(=O)[C@H](CCCNC(=N)N)NC(=O)[C@@H]1CCCN1C(=O)[C@@H]1CCCN1C(=O)[C@H](CC(C)C)NC(=O)CNC(=O)[C@@H]1CCC(=O)N1)C(=O)N1CCC[C@H]1C(=O)N1CCC[C@H]1C(=O)O", "note": "[Bradykinin potentiator B, Pyr-Gly-Leu-Pro-Pro-Arg-Pro-Lys-Ile-Pro-Pro-OH] ([pGlu]GLPPRPKIPP-OH)", "values": [
      {"measurement": "viability at 144 h, 10 micrograms per ml", "setting": "[1]", "value": 100, "unit": "%"},
      {"measurement": "viability at 144 h", "setting": "[2]", "value": 100, "unit": "%"},
      {"measurement": "% inhibition", "setting": "MRSA", "value": 0.0, "unit": "%"},
      {"measurement": "% inhibition", "setting": "Pseudomonas aeruginosa", "value": 0.0, "unit": "%"},
      {"measurement": "% inhibition", "setting": "Streptococcus pneumoniae", "value": 0.0, "unit": "%"},
      {"measurement": "viability at 10 micrograms per ml", "setting": "[3]", "value": 100, "unit": "%"}
    ]},
    {"molecule": "Cc1cn([C@H]2C[C@H](N=[N+]=[N-])[C@@H](CO)O2)c(=O)[nH]c1=O", "note": "[AZT]", "values": [
      {"measurement": "% Cell viability", "setting": "CEM-SS cells", "value": 97, "unit": "%"},
      {"measurement": "% CPE reduction in HIV-1 infected CEM-SS cells", "setting": "HIV-1IIIB", "value": 99, "unit": "%"}
    ]},
    {"molecule": "Nc1nc(O)c2ncn(COC(CO)CO)c2n1", "note": "[Ganciclovir]", "values": [
      {"measurement": "% Cell viability", "setting": "MRC-5 cells", "value": 100, "unit": "%"},
      {"measurement": "% plaque reduction", "setting": "HCMV strain AD169", "value": 100, "unit": "%"}
    ]},
    {"molecule": "Nc1ccn([C@@H]2CS[C@H](CO)O2)c(=O)n1", "note": "[3TC]", "values": [
      {"measurement": "% Cell viability", "setting": "HepG2-2.2.15 cells", "value": 95.8, "unit": "%"}
    ]},
    {"molecule": "CC(C)(C)NC(=O)[C@@H]1CN(Cc2cccnc2)CCN1C[C@@H](O)C[C@@H](Cc1ccccc1)C(=O)N[C@H]1c2ccccc2C[C@H]1O", "note": "[Indinavir]", "values": [
      {"measurement": "% Cell viability", "setting": "CEM-SS cells", "value": 93, "unit": "%"},
      {"measurement": "% CPE reduction in HIV-1 infected CEM-SS cells", "setting": "HIV-1IIIB", "value": 100, "unit": "%"}
    ]}
  ]
}
